This is an account of results in patent publication US20240109917A1 (ACTELION PHARMACEUTICALS LTD, priority 2020, published 2024).

This experiment deals with VEGFR2, unphosphorylated (Homo sapiens (Human), UniProt P35968). Briefly: VEGFR ADP GLO Assay. The experiment is classed as biochemical.
VEGFR2, unphosphorylated, sequence (P35968 20-1356): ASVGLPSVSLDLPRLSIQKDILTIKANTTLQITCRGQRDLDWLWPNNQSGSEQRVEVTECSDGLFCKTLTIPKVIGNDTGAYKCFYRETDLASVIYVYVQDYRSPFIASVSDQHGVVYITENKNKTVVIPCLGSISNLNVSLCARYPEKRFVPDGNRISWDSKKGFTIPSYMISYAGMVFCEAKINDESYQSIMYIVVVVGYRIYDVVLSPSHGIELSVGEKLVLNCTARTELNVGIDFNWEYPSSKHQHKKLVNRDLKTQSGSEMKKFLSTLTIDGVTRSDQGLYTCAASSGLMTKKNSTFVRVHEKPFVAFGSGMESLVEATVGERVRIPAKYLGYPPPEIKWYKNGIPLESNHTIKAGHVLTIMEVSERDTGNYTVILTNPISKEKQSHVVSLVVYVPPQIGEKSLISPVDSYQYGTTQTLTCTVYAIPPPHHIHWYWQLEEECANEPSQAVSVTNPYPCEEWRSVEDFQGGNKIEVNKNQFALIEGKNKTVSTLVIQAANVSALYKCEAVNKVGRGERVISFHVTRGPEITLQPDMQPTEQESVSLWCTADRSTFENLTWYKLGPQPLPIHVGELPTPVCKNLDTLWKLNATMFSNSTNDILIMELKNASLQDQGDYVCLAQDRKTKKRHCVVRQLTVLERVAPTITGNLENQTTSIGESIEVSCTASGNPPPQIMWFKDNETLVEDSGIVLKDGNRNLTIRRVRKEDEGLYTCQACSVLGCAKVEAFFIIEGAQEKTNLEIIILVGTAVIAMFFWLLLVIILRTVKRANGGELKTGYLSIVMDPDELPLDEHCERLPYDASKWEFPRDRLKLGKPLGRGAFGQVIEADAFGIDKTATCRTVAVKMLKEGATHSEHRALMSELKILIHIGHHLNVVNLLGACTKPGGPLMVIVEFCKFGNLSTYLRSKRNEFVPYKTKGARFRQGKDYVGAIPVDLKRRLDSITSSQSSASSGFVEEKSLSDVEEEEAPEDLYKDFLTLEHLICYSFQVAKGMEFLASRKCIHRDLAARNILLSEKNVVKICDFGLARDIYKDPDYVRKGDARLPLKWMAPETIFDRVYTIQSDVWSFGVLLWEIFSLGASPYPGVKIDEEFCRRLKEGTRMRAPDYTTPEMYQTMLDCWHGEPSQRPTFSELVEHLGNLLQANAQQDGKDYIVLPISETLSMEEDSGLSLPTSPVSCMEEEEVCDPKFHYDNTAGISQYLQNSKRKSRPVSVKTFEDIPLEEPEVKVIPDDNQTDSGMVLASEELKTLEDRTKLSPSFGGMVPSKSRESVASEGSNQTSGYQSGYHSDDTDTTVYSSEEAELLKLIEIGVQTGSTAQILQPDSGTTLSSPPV
Usually IC50 stands for the concentration at which inhibition is half-maximal. Higher therefore signals lower potency. `Cc1ncc(C(=O)NCCN2CCCC23CC3)cc1NC(=O)c1cnn2cc(-c3cnn(C)c3)sc12` [Example 2, N-(5-((2-(4-azaspiro[2.4]heptan-4-yl)ethyl)carbamoyl)-2-methylpyridin-3-yl)-2-(1-methyl-1H-pyrazol-4-yl)pyrazolo[5,1-b]thiazole-7-carboxamide] registered a 50% inhibitory concentration (IC50) of more than 7.5 µM.

Molecule `Cc1ncc(C(=O)NCCN2CCCC23CCC3)cc1NC(=O)c1cnn2cc(-c3cnn(C)c3)sc12` [Example 3, N-(5-((2-(5-azaspiro[3.4]octan-5-yl)ethyl)carbamoyl)-2-methylpyridin-3-yl)-2-(1-methyl-1H-pyrazol-4-yl)pyrazolo[5,1-b]thiazole-7-carboxamide] had an IC50 of 6.98 µM.

Take `Cc1ncc(NC(=O)CCN2CCCC2(C)C)cc1NC(=O)c1cnn2cc(-c3cnn(C)c3)sc12` [Example 42, N-(5-(3-(2,2-dimethylpyrrolidin-1-yl)propanamido)-2-methyl-pyridin-3-yl)-2-(1-methyl-1H-pyrazol-4-yl)pyrazolo[5,1-b]thiazole-7-carboxamide]: the IC50 was more than 7.5 µM.

`Cc1ncc(NC(=O)CCN2CC3CCC2CC3)cc1NC(=O)c1cnn2cc(-c3cnn(C)c3)sc12` [Example 43, N-(5-(3-(2-azabicyclo[2.2.2]octan-2-yl)propanamido)-2-methylpyridin-3-yl)-2-(1-methyl-1H-pyrazol-4-yl)pyrazolo[5,1-b]thiazole-7-carboxamide] showed an IC50 of more than 7.5 µM.

As for `Cc1ncc(NC(=O)CN2C3CCC2COC3)cc1NC(=O)c1cnn2cc(-c3cnn(C)c3)sc12` [Example 44, N-(5-(2-(3-oxa-8-azabicyclo[3.2.1]octan-8-yl)acetamido)-2-methylpyridin-3-yl)-2-(1-methyl-1H-pyrazol-4-yl)pyrazolo[5,1-b]thiazole-7-carboxamide], the IC50 is more than 7.5 µM.

Regarding `Cc1ncc(NC(=O)CN2CC3CC(C2)O3)cc1NC(=O)c1cnn2cc(-c3cnn(C)c3)sc12` [Example 45, N-(5-(2-(6-oxa-3-azabicyclo[3.1.1]heptan-3-yl)acetamido)-2-methylpyridin-3-yl)-2-(1-methyl-1H-pyrazol-4-yl)pyrazolo[5,1-b]thiazole-7-carboxamide], the IC50 is more than 7.5 µM.

Regarding `Cc1ncc(NC(=O)CN2CCC3(CC2)COC3)cc1NC(=O)c1cnn2cc(-c3cnn(C)c3)sc12` [Example 46, N-(5-(2-(2-oxa-7-azaspiro[3.5]nonan-7-yl)acetamido)-2-methylpyridin-3-yl)-2-(1-methyl-1H-pyrazol-4-yl)pyrazolo[5,1-b]thiazole-7-carboxamide], the IC50 is more than 7.5 µM.

`Cc1ncc(NC(=O)CN2CCOCC23CC3)cc1NC(=O)c1cnn2cc(-c3cnn(C)c3)sc12` [Example 47, N-(5-(2-(7-oxa-4-azaspiro[2.5]octan-4-yl)acetamido)-2-methylpyridin-3-yl)-2-(1-methyl-1H-pyrazol-4-yl)pyrazolo[5,1-b]thiazole-7-carboxamide] displayed an IC50 of more than 7.5 µM.

With `Cc1ncc(NC(=O)CN2Cc3cccnc3C2)cc1NC(=O)c1cnn2cc(-c3cnn(C)c3)sc12` [Example 48, N-(5-(2-(5H-pyrrolo[3,4-b]pyridin-6 (7H)-yl)acetamido)-2-methylpyridin-3-yl)-2-(1-methyl-1H-pyrazol-4-yl)pyrazolo[5,1-b]thiazole-7-carboxamide], the half-inhibitory concentration (IC50) is more than 7.5 µM.

In the case of `Cc1ncc(NC(=O)CN2CCCC(F)(F)C2)cc1NC(=O)c1cnn2cc(-c3cnn(C)c3)sc12` [Example 49, N-(5-(2-(3,3-difluoropiperidin-1-yl)acetamido)-2-methylpyridin-3-yl)-2-(1-methyl-1H-pyrazol-4-yl)pyrazolo[5,1-b]thiazole-7-carboxamide], the half-maximal inhibitory concentration (IC50) is more than 7.5 µM.

Turning to `Cc1ncc(NC(=O)CN2CCOC[C@H]2C)cc1NC(=O)c1cnn2cc(-c3cnn(C)c3)sc12` [Example 50, (R)-2-(1-methyl-1H-pyrazol-4-yl)-N-(2-methyl-5-(2-(3-methylmorpholino)acetamido)pyridin-3-yl)pyrazolo[5,1-b]thiazole-7-carboxamide], the IC50 is more than 7.5 µM.

Turning to `Cc1ncc(NC(=O)CN2[C@H](C)COC[C@H]2C)cc1NC(=O)c1cnn2cc(-c3cnn(C)c3)sc12` [Example 51, N-(5-(2-((3R,5R)-3,5-dimethylmorpholino)acetamido)-2-methylpyridin-3-yl)-2-(1-methyl-1H-pyrazol-4-yl)pyrazolo[5,1-b]thiazole-7-carboxamide], the IC50 is more than 7.5 µM.

The molecule `Cc1ncc(NC(=O)CN2C[C@H](C)O[C@@H](C)C2)cc1NC(=O)c1cnn2cc(-c3cnn(C)c3)sc12` [Example 52, N-(5-(2-((2S,6S)-2,6-dimethylmorpholino)acetamido)-2-methylpyridin-3-yl)-2-(1-methyl-1H-pyrazol-4-yl)pyrazolo[5,1-b]thiazole-7-carboxamide] displayed an IC50 of more than 7.5 µM.

`Cc1ncc(NC(=O)CN2C[C@@H](C)O[C@@H](C)C2)cc1NC(=O)c1cnn2cc(-c3cnn(C)c3)sc12` [Example 53, N-(5-(2-((2R,6S)-2,6-dimethylmorpholino)acetamido)-2-methylpyridin-3-yl)-2-(1-methyl-1H-pyrazol-4-yl)pyrazolo[5,1-b]thiazole-7-carboxamide] had an IC50 of more than 7.5 µM.

As to `Cc1ncc(NC(=O)CN2CCO[C@H](C)C2)cc1NC(=O)c1cnn2cc(-c3cnn(C)c3)sc12` [Example 54, (R)-2-(1-methyl-1H-pyrazol-4-yl)-N-(2-methyl-5-(2-(2-methylmorpholino)acetamido)pyridin-3-yl)pyrazolo[5,1-b]thiazole-7-carboxamide], the IC50 is more than 7.5 µM.

Consider `Cc1ncc(NC(=O)CN2CCOCC2)cc1NC(=O)c1cnn2cc(-c3cnn(C)c3)sc12` [Example 55, 2-(1-methyl-1H-pyrazol-4-yl)-N-(2-methyl-5-(2-morpholinoacetamido)pyridin-3-yl)pyrazolo[5,1-b]thiazole-7-carboxamide], for which the IC50 was more than 7.5 µM.

`Cc1ncc(NC(=O)CN2CCc3c(cnn3C)C2)cc1NC(=O)c1cnn2cc(-c3cnn(C)c3)sc12` [Example 57, 2-(1-methyl-1H-pyrazol-4-yl)-N-(2-methyl-5-(2-(1-methyl-6,7-dihydro-1H-pyrazolo[4,3-c]pyridin-5 (4H)-yl)acetamido)pyridin-3-yl)pyrazolo[5,1-b]thiazole-7-carboxamide] came in with an IC50 of more than 7.5 µM.

The molecule `Cc1ncc(NC(=O)CN2CCc3ncsc3C2)cc1NC(=O)c1cnn2cc(-c3cnn(C)c3)sc12` [Example 58, N-(5-(2-(6,7-dihydrothiazolo[5,4-c]pyridin-5 (4H)-yl)acetamido)-2-methylpyridin-3-yl)-2-(1-methyl-1H-pyrazol-4-yl)pyrazolo[5,1-b]thiazole-7-carboxamide] yielded a concentration for half-maximal inhibition (IC50) of more than 7.5 µM.

With `Cc1ncc(NC(=O)CN2CCS(=O)(=O)CC2)cc1NC(=O)c1cnn2cc(-c3cnn(C)c3)sc12` [Example 59, N-(5-(2-(1,1-dioxidothiomorpholino)acetamido)-2-methylpyridin-3-yl)-2-(1-methyl-1H-pyrazol-4-yl)pyrazolo[5,1-b]thiazole-7-carboxamide], the IC50 was more than 7.5 µM.

For the molecule `Cc1ncc(NC(=O)CN2CCc3cccnc3C2)cc1NC(=O)c1cnn2cc(-c3cnn(C)c3)sc12` [Example 60, N-(5-(2-(5,6-dihydro-1,7-naphthyridin-7 (8H)-yl)acetamido)-2-methylpyridin-3-yl)-2-(1-methyl-1H-pyrazol-4-yl)pyrazolo[5,1-b]thiazole-7-carboxamide], the half-inhibitory concentration (IC50) is more than 7.5 µM.

The molecule `Cc1ncc(NC(=O)CN2CCc3scnc3C2)cc1NC(=O)c1cnn2cc(-c3cnn(C)c3)sc12` [Example 61, N-(5-(2-(6,7-dihydrothiazolo[4,5-c]pyridin-5 (4H)-yl)acetamido)-2-methylpyridin-3-yl)-2-(1-methyl-1H-pyrazol-4-yl)pyrazolo[5,1-b]thiazole-7-carboxamide] displayed an IC50 of more than 7.5 µM.

For the molecule `Cc1ncc(NC(=O)CN2CCc3cnccc3C2)cc1NC(=O)c1cnn2cc(-c3cnn(C)c3)sc12` [Example 62, N-(5-(2-(3,4-dihydro-2,6-naphthyridin-2 (1H)-yl)acetamido)-2-methylpyridin-3-yl)-2-(1-methyl-1H-pyrazol-4-yl)pyrazolo[5,1-b]thiazole-7-carboxamide], the IC50 was more than 7.5 µM.

Turning to `Cc1ncc(NC(=O)CN2CCc3ncccc3C2)cc1NC(=O)c1cnn2cc(-c3cnn(C)c3)sc12` [Example 63, N-(5-(2-(7,8-dihydro-1,6-naphthyridin-6 (5H)-yl)acetamido)-2-methylpyridin-3-yl)-2-(1-methyl-1H-pyrazol-4-yl)pyrazolo[5,1-b]thiazole-7-carboxamide], the IC50 is more than 7.5 µM.

In the case of `Cc1ncc(NC(=O)CN2CCO[C@@H](C)C2)cc1NC(=O)c1cnn2cc(-c3cnn(C)c3)sc12` [Example 64, (S)-2-(1-methyl-1H-pyrazol-4-yl)-N-(2-methyl-5-(2-(2-methylmorpholino)acetamido)pyridin-3-yl)pyrazolo[5,1-b]thiazole-7-carboxamide], the IC50 was more than 7.5 µM.

Molecule `CC[C@@H]1CN(CC(=O)Nc2cnc(C)c(NC(=O)c3cnn4cc(-c5cnn(C)c5)sc34)c2)CCO1` [Example 65, (R)—N-(5-(2-(2-ethylmorpholino)acetamido)-2-methylpyridin-3-yl)-2-(1-methyl-1H-pyrazol-4-yl)pyrazolo[5,1-b]thiazole-7-carboxamide] yielded an IC50 of more than 7.5 µM.

As to `CC[C@H]1CN(CC(=O)Nc2cnc(C)c(NC(=O)c3cnn4cc(-c5cnn(C)c5)sc34)c2)CCO1` [Example 66, (S)—N-(5-(2-(2-ethylmorpholino)acetamido)-2-methylpyridin-3-yl)-2-(1-methyl-1H-pyrazol-4-yl)pyrazolo[5,1-b]thiazole-7-carboxamide], the IC50 is more than 7.5 µM.

The molecule `Cc1ncc(NC(=O)CN2CCOC(C)(C)C2)cc1NC(=O)c1cnn2cc(-c3cnn(C)c3)sc12` [Example 67, N-(5-(2-(2,2-dimethylmorpholino)acetamido)-2-methylpyridin-3-yl)-2-(1-methyl-1H-pyrazol-4-yl)pyrazolo[5,1-b]thiazole-7-carboxamide] came in with a concentration for half-maximal inhibition (IC50) of more than 7.5 µM.

`Cc1ncc(NC(=O)CN2CCOCC2(C)C)cc1NC(=O)c1cnn2cc(-c3cnn(C)c3)sc12` [Example 68, N-(5-(2-(3,3-dimethylmorpholino)acetamido)-2-methylpyridin-3-yl)-2-(1-methyl-1H-pyrazol-4-yl)pyrazolo[5,1-b]thiazole-7-carboxamide] yielded an IC50 of more than 7.5 µM.
